Results published in ChEMBL document CHEMBL4837255, “Overcoming the Pregnane X Receptor Liability: Rational Design to Eliminate PXR-Mediated CYP Induction” (ACS Med Chem Lett, 2021).
Blank lines part the entries; values can stand above or below the compound they belong to.

Columns and labels:
[1] = AUC (0 to t) in rat at 100 mg/kg/day measured after 10 days; format: ADME, organism-based; design: time 10 day, dose 100 mg/kg/day; conditions: in vivo
[2] = Cmax in rat at 100 mg/kg/day measured after 10 days; format: ADME, organism-based; design: time 10 day, dose 100 mg/kg/day; conditions: in vivo
[3] = Cmax in rat at 100 mg/kg/day measured after 1 day; format: ADME, organism-based; design: dose 100 mg/kg/day, time 1 day; conditions: in vivo
[4] = target: T1, Nuclear receptor subfamily 1 group I member 2 (Homo sapiens, UniProt O75469); assay: (§1) Activation of full length human PXR expressed in human HepG2 cells co-expressing luciferase of CYP3A4 promoter transcription assessed as increase of luciferase activity preincubated for 24 hrs followed by addition of luciferase substrate and measured by hPXR Gene reporter assay; format: ADME, cell-based
T1 sequence (O75469 whole entry): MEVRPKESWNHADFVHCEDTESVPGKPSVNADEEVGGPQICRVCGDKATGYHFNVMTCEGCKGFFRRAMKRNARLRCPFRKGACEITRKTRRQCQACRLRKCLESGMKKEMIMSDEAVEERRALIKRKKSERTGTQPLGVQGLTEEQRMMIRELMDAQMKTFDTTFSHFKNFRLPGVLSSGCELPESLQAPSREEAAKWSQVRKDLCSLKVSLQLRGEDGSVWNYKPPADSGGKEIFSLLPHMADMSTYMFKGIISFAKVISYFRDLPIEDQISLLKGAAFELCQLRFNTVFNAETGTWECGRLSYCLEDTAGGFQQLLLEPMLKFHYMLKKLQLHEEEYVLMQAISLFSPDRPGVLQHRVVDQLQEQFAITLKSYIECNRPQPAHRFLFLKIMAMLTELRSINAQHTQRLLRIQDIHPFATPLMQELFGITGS

[5] = AUC (0 to t) in rat at 100 mg/kg/day measured after 1 day; format: ADME, organism-based; design: time 1 day, dose 100 mg/kg/day; conditions: in vivo
PXR (NR1I2) = target: T2, PXR (NR1I2) (Homo sapiens, UniProt O75469); assay: as §1, with “activity at 50 uM” for “activity”, “assay relative to control” for “assay”; format: ADME, cell-based
T2 sequence (O75469 whole entry): T1 sequence (O75469 whole entry)

[6] = AUC (0 to t) in mouse at 2000 mg/kg/day, po measured after 1 day; format: ADME, organism-based; design: time 1 day, dose 2000 mg/kg/day; conditions: in vivo
[7] = AUC (0 to t) in rat at 300 mg/kg/day measured after 10 days; format: ADME, organism-based; design: time 10 day, dose 300 mg/kg/day; conditions: in vivo
[8] = AUC (0 to t) in mouse at 2000 mg/kg/day, po measured after 10 days; format: ADME, organism-based; design: time 10 day, dose 2000 mg/kg/day; conditions: in vivo
[9] = Cmax in mouse at 1000 mg/kg/day, po measured after 10 days; format: ADME, organism-based; design: route oral, dose 1000 mg/kg/day, time 10 day; conditions: in vivo
[10] = AUC (0 to t) in mouse at 300 mg/kg/day, po measured after 10 days; format: ADME, organism-based; design: time 10 day, dose 300 mg/kg/day; conditions: in vivo
[11] = AUC (0 to t) in mouse at 300 mg/kg/day, po measured after 1 day; format: ADME, organism-based; design: time 1 day, dose 300 mg/kg/day; conditions: in vivo
[12] = Cmax in mouse at 300 mg/kg/day, po measured after 1 day; format: ADME, organism-based; design: route oral, dose 300 mg/kg/day, time 1 day; conditions: in vivo
[13] = Cmax in mouse at 2000 mg/kg/day, po measured after 1 day; format: ADME, organism-based; design: route oral, dose 2000 mg/kg/day, time 1 day; conditions: in vivo
[14] = AUC (0 to t) in rat at 300 mg/kg/day measured after 1 day; format: ADME, organism-based; design: dose 300 mg/kg/day, time 1 day; conditions: in vivo
CYP3A4 = CYP3A4 (Homo sapiens, UniProt P08684); assay: Induction of CYP3A4 in human hepatocytes; format: ADME, cell-based, Liver
CYP3A4, sequence (P08684 whole entry): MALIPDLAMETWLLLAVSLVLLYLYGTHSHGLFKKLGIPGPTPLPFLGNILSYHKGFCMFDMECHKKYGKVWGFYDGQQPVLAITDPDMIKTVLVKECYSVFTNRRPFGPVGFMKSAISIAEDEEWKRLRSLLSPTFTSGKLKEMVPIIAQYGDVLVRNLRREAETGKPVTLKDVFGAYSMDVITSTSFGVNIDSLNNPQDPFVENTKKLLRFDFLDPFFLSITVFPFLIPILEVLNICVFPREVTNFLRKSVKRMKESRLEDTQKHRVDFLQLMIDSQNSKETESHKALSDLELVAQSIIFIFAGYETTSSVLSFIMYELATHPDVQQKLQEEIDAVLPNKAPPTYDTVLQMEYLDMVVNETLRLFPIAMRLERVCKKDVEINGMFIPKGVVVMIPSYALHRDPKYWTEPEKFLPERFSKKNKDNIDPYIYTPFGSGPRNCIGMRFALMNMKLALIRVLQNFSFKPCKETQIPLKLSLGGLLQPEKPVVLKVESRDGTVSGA

[15] = target: T3, Extracellular calcium-sensing receptor (Mus musculus, UniProt Q9QY96); assay: Antagonist activity at mouse CaSR; format: functional
T3 sequence (Q9QY96 whole entry): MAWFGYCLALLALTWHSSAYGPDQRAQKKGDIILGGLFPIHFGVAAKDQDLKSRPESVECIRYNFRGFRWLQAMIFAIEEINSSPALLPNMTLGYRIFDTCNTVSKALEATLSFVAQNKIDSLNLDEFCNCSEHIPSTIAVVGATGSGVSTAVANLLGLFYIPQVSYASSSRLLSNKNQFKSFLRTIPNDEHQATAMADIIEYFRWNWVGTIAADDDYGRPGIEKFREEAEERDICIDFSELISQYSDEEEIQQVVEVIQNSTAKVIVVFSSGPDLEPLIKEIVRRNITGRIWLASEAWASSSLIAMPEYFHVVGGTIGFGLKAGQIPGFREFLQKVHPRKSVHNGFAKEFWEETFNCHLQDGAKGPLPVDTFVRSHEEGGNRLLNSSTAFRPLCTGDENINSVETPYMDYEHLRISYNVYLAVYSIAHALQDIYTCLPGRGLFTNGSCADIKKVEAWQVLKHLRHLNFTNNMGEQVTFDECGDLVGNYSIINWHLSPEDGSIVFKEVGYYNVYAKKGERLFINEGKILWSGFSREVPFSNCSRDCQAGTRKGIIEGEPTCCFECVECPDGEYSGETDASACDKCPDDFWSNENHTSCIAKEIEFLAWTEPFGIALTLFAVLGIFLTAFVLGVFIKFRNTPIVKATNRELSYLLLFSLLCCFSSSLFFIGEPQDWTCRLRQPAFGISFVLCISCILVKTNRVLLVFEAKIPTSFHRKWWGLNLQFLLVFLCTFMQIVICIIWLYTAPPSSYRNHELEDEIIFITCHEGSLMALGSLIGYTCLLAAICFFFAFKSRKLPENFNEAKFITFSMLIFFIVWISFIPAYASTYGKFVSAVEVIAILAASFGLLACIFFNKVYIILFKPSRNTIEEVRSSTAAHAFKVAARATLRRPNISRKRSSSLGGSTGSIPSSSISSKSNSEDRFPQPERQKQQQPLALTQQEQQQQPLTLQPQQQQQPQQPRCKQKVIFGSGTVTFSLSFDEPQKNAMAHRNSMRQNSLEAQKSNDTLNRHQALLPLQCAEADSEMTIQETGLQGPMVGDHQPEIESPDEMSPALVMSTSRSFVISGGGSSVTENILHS

[16] = Cmax in rat at 300 mg/kg/day measured after 1 day; format: ADME, organism-based; design: dose 300 mg/kg/day, time 1 day; conditions: in vivo
[17] = Cmax in mouse at 1000 mg/kg/day, po measured after 1 day; format: ADME, organism-based; design: route oral, dose 1000 mg/kg/day, time 1 day; conditions: in vivo
[18] = AUC (0 to t) in mouse at 1000 mg/kg/day, po measured after 10 days; format: ADME, organism-based; design: time 10 day, dose 1000 mg/kg/day; conditions: in vivo
[19] = Cmax in mouse at 2000 mg/kg/day, po measured after 10 days; format: ADME, organism-based; design: route oral, time 10 day, dose 2000 mg/kg/day; conditions: in vivo
[20] = Cmax in mouse at 300 mg/kg/day, po measured after 10 days; format: ADME, organism-based; design: route oral, time 10 day, dose 300 mg/kg/day; conditions: in vivo
[21] = AUC (0 to t) in mouse at 1000 mg/kg/day, po measured after 1 day; format: ADME, organism-based; design: time 1 day, dose 1000 mg/kg/day; conditions: in vivo
[22] = Cmax in rat at 300 mg/kg/day measured after 10 days; format: ADME, organism-based; design: time 10 day, dose 300 mg/kg/day; conditions: in vivo
[23] = target: T4, Extracellular calcium-sensing receptor (Homo sapiens, UniProt P41180); assay: Antagonist activity at human CaSR in human HEK293 cells measured after 5 mins by FLIPR assay; format: functional, cell-based
T4 sequence (P41180 whole entry): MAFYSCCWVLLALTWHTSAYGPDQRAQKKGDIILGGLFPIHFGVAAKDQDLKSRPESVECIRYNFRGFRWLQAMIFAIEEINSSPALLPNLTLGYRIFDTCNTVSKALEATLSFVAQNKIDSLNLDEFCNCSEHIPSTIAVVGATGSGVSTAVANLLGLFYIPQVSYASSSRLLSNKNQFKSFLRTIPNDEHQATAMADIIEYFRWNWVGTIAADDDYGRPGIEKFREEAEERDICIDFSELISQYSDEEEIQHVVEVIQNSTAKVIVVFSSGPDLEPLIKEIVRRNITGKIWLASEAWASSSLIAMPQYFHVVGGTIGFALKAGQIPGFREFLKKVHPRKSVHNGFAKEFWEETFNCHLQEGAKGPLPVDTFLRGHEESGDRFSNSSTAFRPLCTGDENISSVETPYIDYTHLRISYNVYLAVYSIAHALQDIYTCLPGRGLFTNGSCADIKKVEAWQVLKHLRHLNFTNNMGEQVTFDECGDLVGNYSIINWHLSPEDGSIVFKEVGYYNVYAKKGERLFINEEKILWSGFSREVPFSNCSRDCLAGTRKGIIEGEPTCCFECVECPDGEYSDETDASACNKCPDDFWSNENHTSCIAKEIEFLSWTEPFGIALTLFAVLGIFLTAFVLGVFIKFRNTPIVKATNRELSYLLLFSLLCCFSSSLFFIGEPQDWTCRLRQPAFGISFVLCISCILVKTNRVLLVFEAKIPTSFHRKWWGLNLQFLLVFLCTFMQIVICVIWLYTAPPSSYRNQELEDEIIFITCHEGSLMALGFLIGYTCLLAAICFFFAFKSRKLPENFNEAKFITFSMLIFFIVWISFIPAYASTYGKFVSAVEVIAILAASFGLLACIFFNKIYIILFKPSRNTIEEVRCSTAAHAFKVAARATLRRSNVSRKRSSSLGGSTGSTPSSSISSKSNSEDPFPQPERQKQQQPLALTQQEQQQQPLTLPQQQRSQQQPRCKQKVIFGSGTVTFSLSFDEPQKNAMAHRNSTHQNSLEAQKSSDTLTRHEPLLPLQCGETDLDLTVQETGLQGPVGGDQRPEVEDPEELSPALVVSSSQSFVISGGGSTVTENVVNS

Compound: Cc1nc(-c2cccc(F)c2O)n(CCc2ccccc2)c(=O)c1-c1cc(-c2ccccn2)c(C)s1
AUC(0-t) at 240 h [1]: 41100 ng·h/mL
Cmax [2]: 12000 ng/mL
Cmax [3]: 8900 ng/mL
EC50 [4]: > 50 µM
AUC(0-t) at 24 h [5]: 29500 ng·h/mL
Emax at 24 h, 50 µM (PXR (NR1I2)): 9%

Compound: Cc1nc(-c2cccc(F)c2O)n(CCc2ccccc2)c(=O)c1-c1ccc(-c2ccccn2)s1
EC50 [4]: 5 µM
Emax at 24 h, 50 µM (PXR (NR1I2)): 36%

Compound: Cc1ncc(-c2c(C)nc(-c3cccc(F)c3O)n(CCc3ccccc3)c2=O)s1
EC50 [4]: > 10 µM
Emax at 24 h, 50 µM (PXR (NR1I2)): 40%

Compound: Cc1ccc(-c2nc(CCc3ccccc3)c(-c3cccc(F)c3O)nc2C)s1
EC50 [4]: 3.2 µM
Emax at 24 h, 50 µM (PXR (NR1I2)): 110%

Compound: Cc1nc(-c2cccc(F)c2O)n(CCc2ccccc2)c(=O)c1-c1ccc(CO)s1
EC50 [4]: 13 µM
Emax at 24 h, 50 µM (PXR (NR1I2)): 31%
IC50 [23]: > 10 µM

Continued, values first:

AUC(0-t) at 24 h [6]: 15100 ng·h/mL
EC50 [4]: 2.5 µM
AUC(0-t) at 240 h [7]: 1800 ng·h/mL
AUC(0-t) at 240 h [8]: 1580 ng·h/mL
Cmax [9]: 680 ng/mL
AUC(0-t) at 240 h [10]: 1260 ng·h/mL
AUC(0-t) at 24 h [11]: 2880 ng·h/mL
Cmax [12]: 980 ng/mL
Cmax [13]: 3600 ng/mL
AUC(0-t) at 24 h [14]: 2500 ng·h/mL
Emax (CYP3A4): 10%
IC50 [15]: 0.051 µM
Cmax [16]: 330 ng/mL
Cmax [17]: 2960 ng/mL
Emax at 24 h, 50 µM (PXR (NR1I2)): 122%
AUC(0-t) at 240 h [18]: 2850 ng·h/mL
Cmax [19]: 480 ng/mL
Cmax [20]: 820 ng/mL
AUC(0-t) at 24 h [21]: 10800 ng·h/mL
Cmax [22]: 360 ng/mL
Compound: Cc1ccc(-c2c(C)nc(-c3cccc(F)c3O)n(CCc3ccccc3)c2=O)s1

EC50 [4]: 1 µM
Emax at 24 h, 50 µM (PXR (NR1I2)): 250%
Compound: Cc1nc(-c2cccc(F)c2O)n(CCc2ccccc2)c(=O)c1Cc1ccccc1

EC50 [4]: 8 µM
Emax at 24 h, 50 µM (PXR (NR1I2)): 60%
Compound: Cc1nc(-c2cccc(F)c2O)n(CCc2ccccc2)c(=O)c1-c1ccc(-c2ccccc2)s1
